In US8211883B2, “Topical delivery of phthalocyanines” (priority 2004, dated 2012):

Assays:
[1] = tested on: Chinese hamster V79-379 lung fibroblasts; experiment: Growth delay of V79 cultures after phthalocyanine and red light; assay type: cell-based; details: V79 cells, 0.5 μM, 18 hours, 12 kJ/m^2 red light; three day observation
Protocol: At the time of light exposure, there were approximately 1.5×10^5 cells per 25 cm^2 flask. Following irradiation, the HBSS was replaced by 10 mL of fresh complete growth medium, and the cultures were returned to the 37° C. incubator. At various times before and after irradiation, duplicate cultures were trypsinized and counted. Controls included untreated cells and cells treated with light alone or drug alone. In addition, in each experiment, the drug to be tested was compared to a standard treatment, i.e. 1 μM AlPcCl for 18 hours followed by 12 kJ/m^2 light.
The inhibition of V79 culture growth was measured during a three day period following red light irradiation (12 kJ/m^2) of phthalocyanine-pretreated cells. With each of the active compounds, as well as with AlPcCl, there was an initial decrease in cell density, as dead cells became detached from the monolayer. Thereafter, the cell number per flask increased, as living cells grew and divided. The time for the cell density to recover to the level at the time of light exposure was considered the growth delay. […] The ratio of the growth delay for the test photosensitizer and the growth delay for AlPcCl measured in the same experiment is recorded in Table 1. There was less inhibition of culture growth when cells were exposed to compounds III, V, or VI as expected from the poor cellular uptake of these drugs.

[2] = tested on: chemically-induced benign skin papillomas; experiment: PDT of chemically induced skin tumors; assay type: in vivo, SENCAR mice; details: 0.5 and 1.0 mg/kg i.p. in DPPC liposomes
Protocol: 6-week-old female SENCAR mice received a single topical application of 5 μg DMBA in 0.2 mL acetone on the dorsal skin as tumor initiator. One week later, the animals were started on twice-weekly topical applications of 1 μg TPA in 0.2 mL acetone as tumor promoter. All of the animals developed tumors at 12 weeks. Mice that developed 4-5 tumors per animal averaging 5-8 mm in diameter and 2-5 mm in thickness were used. Pc IV, entrapped in DPPC liposomes was administered intraperitoneally at doses of either 0.5 or 1.0 mg/kg and 24 hrs later the tumor area was illuminated with light from an argon pumped dye laser tuned at 675 nm for a total light dose of 135 j/cm^2 (75 mW/cm^2). All possible controls were included; either the animals were untreated, treated only with laser light or treated only with Pc IV alone.

[3] = tested on: human skin keratome biopsies; experiment: Penetration of topically applied PcIV and salts into human skin, confocal fluorescence microscopy; assay type: in vitro ADME; details: for laser transmission at which maximum fluorescence was detectable: fluorescence inversely proportional to laser transmission, listed as PcIV
Protocol: Human skin absorption of PcIV was analyzed by fluorescence confocal microscopy. PcIV fluorescence, upon activation with a HeNe laser at 633 nm, was visualized using a 650 long pass filter. Briefly, 0.4 mm thick human keratomes were removed from the gluteal region of healthy volunteers and divided into 1.5 cm×1.5 cm squares of skin. Upon application of PcIV to the epidermis in a vehicle of ethanol and propylene glycol, visualization of penetration of PcIV was achieved by fluorescence. Pc 4 was then prepared as PcIV-pyruvate and PcIV-HCl and applied in the same vehicle as Pc 4 to the epidermis. Three concentrations, namely, 0.1 mg/mL, 0.05 mg/mL, and 0.01 mg/mL were tested per PcIV formulation. Skin was incubated at 37° C. for 1, 2, and 4 hours, along with vehicle controls. […] Maximum PcIV fluorescence was detectable using laser transmission of 3% for the 0.1 mg/mL and 30% for the 0.01 mg/mL. Both PcIV.pyruvate and PcIV.HCl however could be visualized with a laser transmission of 2-3% for the 0.1 mg/mL and 7-9% for the 0.01 mg/mL concentrations.
The ability of PcIV and the newly prepared PcIV salts (HCl and pyruvate) to penetrate into the epidermis of keratome derived biopsies was examined. The time course of penetrance as well as the effect of dose of the PcIV compounds were evaluated. PcIV and the PcIV.HCl and PcIV.pyruvate salts were resuspended in ethanol (100%, 1 part PcIV, 499 parts ethanol) and then diluted to final concentrations in a 30% Propylene Glycol 70% Ethanol mixture.
Keratome biopsies of normal skin were obtained from normal volunteers after written consent according to UHHS IRB protocol # 05-95-03. To date, seven experiments have been performed. The range of age for volunteers was 20-40 yrs. Individuals represented Fitzpatrick skin types between I-III. Skin biopsies were held in PBS following the keratome procedure until processed for PcIV Application (less than 1 hr). The keratome skin samples (1.5 cm^2) were overlayed onto sterile gauze in 80 mm tissue culture petri dishes epidermal side down. PcIV compounds were then applied to the corners of the sterile gauze and allowed to “wick” through the gauze and contact the epidermis of the skin for the indicated times. Following the incubation, the tissue was removed from the gauze and washed three times in phosphate buffered saline and held, in PBS, until analysis by confocal microscopy. Confocal images were acquired using a 20×N.A. 0.5 water immersion objective on a Zeiss 510 confocal microscope. PcIV fluorescence was elicited using a 633 nm wavelength for excitation, and collected with a 633 nm dichroic mirror and 650 nm long-pass filter.

`CN(C)CCC[Si](C)(C)O[Si]1(O)n2c3c4ccccc4c2N=C2N=C(N=c4c5ccccc5c(n41)=NC1=NC(=N3)c3ccccc31)c1ccccc12` (centres unmarked) [Compound IV, HOSiPcOSi(CH3)2(CH2)3N(CH3)2] was tested, and the “Growth Delay (12 kj/m^2), Efficiency Relative to 1 μM (AlPcCl)” value [1] was greater than 3, the “tumor volume after PDT” value ([2]; 675 nm 135 j/cm^2 24 hrs later) was “eventually decreased to 0 volume” and the tumor return ([2]; length of the study 34 days) was “did not return for the length of the study”. The “laser transmission at which maximum fluorescence was detectable” value ([3]; 0.01 mg/mL in ethanol and propylene glycol) was 30%, the “laser transmission at which maximum fluorescence was detectable” value ([3]; 0.1 mg/mL in ethanol and propylene glycol) was 3% and the penetration into skin ([3]; 0.01-0.1 mg/mL, 1, 2 and 4 hours at 37° C.) was “successfully penetrated the skin to the basal layer in a dose dependent fashion”. For the same compound, the “lowest concentration tested at which penetration is demonstrated” value ([3]; propylene glycol vehicle) was 0.01 mg/mL and the “time to effective penetration through intact human stratum corneum” value ([3]; propylene glycol/ethanol vehicle) was “within one hour”.
